Results taken from US20230103444A1 (The Regents of the University of Colorado, a Body Corporate, priority 2020, published 2023).
Read-outs that look alike come from different tables or passages of the source.

Legend:
cat-CHD1L ATPase = molecular target: T1, cat-CHD1L ATPase (Homo sapiens, UniProt Q86WJ1); experiment: CHD1L ATPase assay with recombinant catalytic domain (cat-CHD1L); type: biochemical; settings: for inhibition at 20 µM: confirmed HTS hits, HTS at 20 μM, read-out: inhibition against cat-CHD1L ATPase; for IC50: units given with the values (nM, μM), read-out: activity in dose response studies against cat-CHD1L ATPase (IC50, FIG. 1A)
T1 construct: inferred from Ni-NTA / imidazole purification; made in house; host or cells: E. coli Rosetta 2 (DE3) pLysS; constructs were a gift from Helena Berglund, Karolinska Institute
T1 sequence (Q86WJ1 16-611 limits assumed): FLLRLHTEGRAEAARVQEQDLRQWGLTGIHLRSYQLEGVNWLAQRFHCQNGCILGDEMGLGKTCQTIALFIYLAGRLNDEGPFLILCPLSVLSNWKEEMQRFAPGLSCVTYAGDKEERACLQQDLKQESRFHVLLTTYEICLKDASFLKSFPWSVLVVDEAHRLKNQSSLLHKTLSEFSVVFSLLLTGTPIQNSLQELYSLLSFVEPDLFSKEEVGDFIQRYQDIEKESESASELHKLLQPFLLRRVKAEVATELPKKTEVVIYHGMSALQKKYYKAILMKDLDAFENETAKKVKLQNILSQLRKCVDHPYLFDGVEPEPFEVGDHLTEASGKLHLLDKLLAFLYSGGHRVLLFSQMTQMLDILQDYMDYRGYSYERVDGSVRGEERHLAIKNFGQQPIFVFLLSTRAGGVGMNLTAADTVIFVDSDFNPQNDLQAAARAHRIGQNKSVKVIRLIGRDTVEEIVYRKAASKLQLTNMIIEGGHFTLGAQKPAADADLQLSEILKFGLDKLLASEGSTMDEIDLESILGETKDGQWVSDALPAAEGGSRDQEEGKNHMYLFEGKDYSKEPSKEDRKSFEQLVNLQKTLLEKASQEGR
Outline: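 Recombinant cat-CHD1L (100 nM) was incubated with 200 nM c-Myc DNA or mononucleosome in 50 mM Tris pH 7.5, 50 mM NaCl, 1 mM DTT and 5% glycerol, with 10 μM ATP, for 1 h at 37 °C. Background came from no-enzyme wells, with 1% DMSO and 10 mM EDTA as controls.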

HCT116 cells = experiment: Invasion assay (scratch wound in Matrigel); type: cell-based, human; settings: 50% Matrigel, 48-72 h
Experimental: A hallmark of EMT is an increase in CSC stemness and cell invasion. Therefore, the ability of compounds 5-7 to inhibit migration and invasion in HCT-116 and DLD1^CHD1L-OE cells was tested. […] Note that DLD1^CHD1L-OE cells form two times more colonies than HCT-116 cells, which have moderate CHD1L expression. This observation is consistent with CHD1L's oncogenic and tumorigenic properties. Next, using HCT-116 cells with uniform scratch wounds imbedded in 50% Matrigel® matrix (Corning Life Sciences, Corning, N.Y.) cells were treated with CHD1L inhibitors at concentrations indicated and invasion was monitored over 72 h.
HCT116 cells were plated at 60,000 cells/well into an IncuCyte® ImageLock 96-well plate (Sartorius, France) and allowed to attach overnight. A wound was created in all wells using the IncuCyte® WoundMaker then washed 2× with PBS. The plate was brought to 4° C. using a Corning XT Cool Core to avoid polymerization of the Matrigel® matrix (Corning Life Sciences, Corning, N.Y.) during the preparation of the invasion conditions. Wells were coated with 50 μL of 50% Matrigel® matrix in RPMI-1640 media. Plates were centrifuged at 150 rpm at 4° C. for 3 min, using a swing bucket rotor to ensure even matrix coating with no air bubbles. […]

SW620 tumor organoids = experiment: Tumor organoid cytotoxicity (CellTiter-Glo 3D); settings: Homo sapiens
[1] = SW-620, read-out: Tumor Organoid Cytotoxicity IC50 (μM) SW620

Cc1cc(Nc2ccc(NC(=O)Cc3cccs3)cc2)nc(N2CCCC2)n1 [Compound 6, N-(4-((6-methyl-2-(pyrrolidin-1-yl)pyrimidin-4-yl)amino)phenyl)-2-(thiophen-2-yl)acetamide]
inhibition at 20 µM (cat-CHD1L ATPase): > 50% | IC50 (cat-CHD1L ATPase): 900 to 5000 nM | inhibition of invasion, in words (HCT116 cells; listed as 6.0): most potent activity | IC50 (SW620 tumor organoids; [1]): 4.6 µM

Cc1cc(Nc2ccc(NC(=O)c3c[nH]c4ccccc34)cc2)nc(N2CCCC2)n1 [Compound 6.3, N-(4-((6-methyl-2-(pyrrolidin-1-yl)pyrimidin-4-yl)amino)phenyl)-1H-indole-3-carboxamide]
inhibition of invasion, in words (HCT116 cells): significantly inhibits HCT116 invasive potential | IC50 (SW620 tumor organoids; SW-620, 72 h, read-out: 3 D Cytotoxicity 72 hr IC50 (μM) SW620): 3.6 µM | IC50 (SW620 tumor organoids; [1]): 3.8 µM

COc1ccc(-c2nc(S(=O)(=O)c3ccccc3)c(S(C)(=O)=O)o2)cc1 [Compound 5]
inhibition at 20 µM (cat-CHD1L ATPase): > 50% | IC50 (cat-CHD1L ATPase): 900 to 5000 nM
